biological target: T1, human leukocyte elastase (HNE) (Homo sapiens, UniProt P08246); assay: HNE inhibitory activity (fluorescent peptide substrate / fluorescently labelled elastin assays); assay type: biochemical; conditions: which of the two substrate assays is not stated
T1 construct: purchased Sigma E8140
T1 sequence (P08246 30-247 limits assumed): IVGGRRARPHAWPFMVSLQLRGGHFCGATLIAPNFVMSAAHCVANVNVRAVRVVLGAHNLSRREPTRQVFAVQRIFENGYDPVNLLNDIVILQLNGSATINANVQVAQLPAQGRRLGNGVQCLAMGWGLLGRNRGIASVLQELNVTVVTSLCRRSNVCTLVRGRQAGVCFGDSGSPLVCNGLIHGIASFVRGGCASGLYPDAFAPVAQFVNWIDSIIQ
Description: Compounds of the invention were tested for their HNE inhibitory activity.
Fluorescent Peptide Substrate
Assays were performed in 96-well plates at a total assay volume of 100 μl. The final concentration of the enzyme (human leukocyte elastase, Sigma E8140) was 0.00036 units/well. A peptide substrate (MeO-Suc-Ala-Ala-Pro-ValAMC, Calbiochem #324745) was used, at the final concentration of 100 μM. The final concentration of DMSO was 1% in the assay buffer (0.05M Tris.HCl, pH 7.5, 0.1M NaCl; 0.1M CaCl2; 0.0005% brij-35).
The enzymatic reaction was started by adding the enzyme. The enzymatic reaction was performed at RT and after 30 mins stopped by adding 50 μl soybean trypsin inhibitor (Sigma T-9003) at a final concentration of 50 μg/well. Fluorescence was read on the FLEXstation (Molecular Devices) using 380 nm excitation and 460 nm emission filters. […] The results are means of two independent experiments, each performed in duplicate.
Using Fluorescently Labelled Elastin
Assays were performed in 96-well plate at a total assay volume of 100 μl. The final concentration of the enzyme (human leukocyte elastase, Sigma E8140) was 0.002 units/well. […]
The enzymatic reaction was started by adding the enzyme. The enzymatic reaction was performed at RT and read after 120 minutes. Fluorescence was read on the FLEXstation (Molecular Devices) using 485 nm excitation and 530 nm emission filters. […]

| SMILES | IC50 |
| --- | --- |
| CN(CCCN1CC2=C(C1=O)[C@@H](c1ccc(I)cc1)NC(=O)N2c1cccc(C(F)(F)F)c1)CCCN1CC2=C(C1=O)[C@@H](c1ccc(I)cc1)NC(=O)N2c1cccc(C(F)(F)F)c1 [Example 23] | 50 to 500 nM |

biological target: T2, human neutrophil elastase (HNE) (Homo sapiens, UniProt P08246); assay: HNE induced lung haemorrhage in the rat; assay type: in vivo; conditions: male Sprague Dawley rats, compound dosed locally to the lung (i.t. or i.n.) before HNE, blood in BALF one hour post HNE challenge
T2 sequence (P08246 30-267): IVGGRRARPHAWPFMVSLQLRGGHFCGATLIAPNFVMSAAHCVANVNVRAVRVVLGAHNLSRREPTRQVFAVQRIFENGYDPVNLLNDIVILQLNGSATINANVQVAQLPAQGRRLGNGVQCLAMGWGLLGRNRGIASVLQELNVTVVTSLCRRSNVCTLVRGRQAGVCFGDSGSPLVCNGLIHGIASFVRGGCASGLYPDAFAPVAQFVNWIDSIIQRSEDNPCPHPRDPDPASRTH
From the text: HNE Induced Lung Haemorrhage in the Rat
Instillation of human neutrophil elastase (HNE) into rat lung causes acute lung damage. The extent of this injury can be assessed by measuring lung haemorrhage. Male Sprague Dawley rats (175-220 g) were obtained from Harlan UK Ltd., full barrier-bred and certified free from specified micro-organisms on receipt. Animals were weighed and randomly assigned to treatment groups (7-12 animals per group).
The vehicle used was 1% DMSO/Saline. Inhibitors were dissolved in 1% DMSO before the addition of 0.9% saline.
Animals in each study used to determine the efficacy of the elastase inhibitors delivered locally to the lung by a variety of routes. Rats were anaesthetised with the inhaled anaesthetic isoflurane (4%) when the dose was given from 30 minutes to 6 h prior to human neutrophil elastase ([…]) administration or terminally anaesthetised with hypnorm:hypnovel:water (1.5:1:2 at 2.7 ml/kg) when the predose was given at less than 30 minutes prior to HNE administration and dosed either intratracheally (i.t.) by transoral administration using a Penn Century microsprayer or intranasally (i.n.) by dropping the fluid on to the nares. Animals either received vehicle or compound at a dose volume of 0.5 ml/kg.
Animals that had been allowed to recover after dosing were terminally anaesthetised with hypnorm:hypnovel:water (1.5:1:2 at 2.7 ml/kg). Once sufficiently anaesthetised, HNE (600 units/ml) or sterile saline was administered by transoral tracheal instillation at a volume of 100 μl using a Penn Century microsprayer. Animals were kept warm in a temperature controlled box and given top up doses of anaesthetic as required to ensure continuous anaesthesia until termination.
Animals were sacrificed (0.5 ml to 1 ml sodium pentobarbitone) one hour post HNE challenge. The trachea was exposed and a small incision made between two tracheal rings allowing a cannula (10 gauge, O.D. 2-10 mm, Portex Ltd.) to be inserted approximately 2 cm into the trachea towards the lung. This was secured into place with a cotton ligature. The lungs were then lavaged (BAL) three times with fresh 4 ml aliquots of heparinised (10 units/ml) phosphate buffered saline (PBS). The resultant BALF was kept on ice until it was centrifuged.
The BALF was centrifuged at 1000 r.p.m. for 10 minutes in a centrifuge cooled to between 4 and 10° C. The supernatant was discarded and the cell pellet resuspended in 1 ml 0.1% CETAB/PBS to lyse the cells. Cell lysates were frozen until spectrophotometric analysis for blood content could be made. Standards were prepared by making solutions of whole rat blood in 0.1% CETAB/PBS.
Once defrosted 100 μl of each lysed cell suspension was placed into a separate well of a 96 well flat bottomed plate. All samples were tested in duplicate and 100 μl 0.1% CETAB/PBS was included on the plate as a blank. The OD of the contents of each well was measured at 415 nm using a spectramax 250 (Molecular devices).
A standard curve was constructed by measuring the OD (at 415 nm) of different concentrations of blood in 0.1% CETAB/PBS (30, 10, 7, 3, 1, 0.3, 0.1 μl/ml).
The amount of blood in each experimental sample was calculated by comparison to the standard curve. Data were then analysed as below:
1) The mean OD for duplicates was calculated
2) The value for the blank was subtracted from the value for all other samples
3) Data were assessed to evaluate the normality of distribution.

| SMILES | reducing the quantity of blood haemorrhaged relative to control |
| --- | --- |
| CN(CCCN1CC2=C(C1=O)[C@@H](c1ccc(C#N)cc1)NC(=O)N2c1cccc(C(F)(F)F)c1)CCCN1CC2=C(C1=O)[C@@H](c1ccc(C#N)cc1)NC(=O)N2c1cccc(C(F)(F)F)c1 [Example 17] | effective in reducing the quantity of blood haemorrhaged |
| N#Cc1ccc([C@H]2NC(=O)N(c3cccc(C(F)(F)F)c3)C3=C2C(=O)N(CCCNCCCN2CC4=C(C2=O)[C@@H](c2ccc(C#N)cc2)NC(=O)N4c2cccc(C(F)(F)F)c2)C3)cc1.O=CO [Example 18] | effective in reducing the quantity of blood haemorrhaged |
| CCN1CC2=C(C1=O)[C@@H](c1ccc(C#N)cc1)N(CC(=O)NCCNC(=N)NCCNC(=O)CN1C(=O)N(c3cccc(C(F)(F)F)c3)C3=C(C(=O)N(CC)C3)[C@H]1c1ccc(C#N)cc1)C(=O)N2c1cccc(C(F)(F)F)c1 [Example 30] | effective in reducing the quantity of blood haemorrhaged |
| C[N+](C)(CCCN1CC2=C(C1=O)[C@@H](c1ccc(C#N)cc1)NC(=O)N2c1cccc(C(F)(F)F)c1)CCCN1CC2=C(C1=O)[C@@H](c1ccc(C#N)cc1)NC(=O)N2c1cccc(C(F)(F)F)c1.[I-] [Example 32] | effective in reducing the quantity of blood haemorrhaged |
| C[N+](C)(CCCN1CC2=C(C1=O)[C@@H](c1ccc(C#N)cc1)N(CC(=O)O)C(=O)N2c1cccc(C(F)(F)F)c1)CCCN1CC2=C(C1=O)[C@@H](c1ccc(C#N)cc1)N(CC(=O)O)C(=O)N2c1cccc(C(F)(F)F)c1.O=C([O-])C(F)(F)F [Example 41] | effective in reducing the quantity of blood haemorrhaged |
| N#Cc1ccc([C@H]2NC(=O)N(c3cccc(C(F)(F)F)c3)C3=C2C(=O)N(CCN2CCN(CCN4CC5=C(C4=O)[C@@H](c4ccc(C#N)cc4)NC(=O)N5c4cccc(C(F)(F)F)c4)C2=N)C3)cc1 [Example 43] | effective in reducing the quantity of blood haemorrhaged |
| C[N+](CCCN1CC2=C(C1=O)[C@@H](c1ccc(C#N)cc1)NC(=O)N2c1cccc(C(F)(F)F)c1)(CCCN1CC2=C(C1=O)[C@@H](c1ccc(C#N)cc1)NC(=O)N2c1cccc(C(F)(F)F)c1)CC(=O)[O-] [Example 49] | effective in reducing the quantity of blood haemorrhaged |
| C[N+](C)(CCCN1CC2=C(C1=O)[C@@H](c1ccc(C#N)cc1)NC(=O)N2c1cccc(C(F)(F)F)c1)CCCN1CC2=C(C1=O)[C@@H](c1ccc(C#N)cc1)NC(=O)N2c1cccc(C(F)(F)F)c1.O=C[O-] [Example 59] | effective in reducing the quantity of blood haemorrhaged |
| C[N+](C)(CCCCN1CC2=C(C1=O)[C@@H](c1ccc(C#N)cc1)NC(=O)N2c1cccc(C(F)(F)F)c1)CCCOc1ccccc1.[Br-] [Example 61] | effective in reducing the quantity of blood haemorrhaged |
| C[N+](CCCCN1CC2=C(C1=O)[C@@H](c1ccc(C#N)cc1)NC(=O)N2c1cccc(C(F)(F)F)c1)(CCCOc1ccccc1)CCCOc1ccccc1.O=C[O-] [Example 64] | effective in reducing the quantity of blood haemorrhaged |

same assay, conditions: rat, 30 mg/kg it, 1 hour prior to HNE; statistically significant

| SMILES | reduction in haemorrhage relative to control |
| --- | --- |
| C[N+](C)(CCCN1CC2=C(C1=O)[C@@H](c1ccc(C#N)cc1)NC(=O)N2c1cccc(C(F)(F)F)c1)CCCN1CC2=C(C1=O)[C@@H](c1ccc(C#N)cc1)NC(=O)N2c1cccc(C(F)(F)F)c1.[I-] [Example 32] | 67% |

Reference: patent US8957082B2, “Tetrahydropyrrolopyrimidinediones and their use in therapy” (Chiesi Farmaceutici S.p.A, priority 2006, dated 2015)
